Legend:
HEK293 [1] = assay: cytotoxicity IC50 (ATP content, uninfected cells); higher = less cytotoxic; details: infection: none
HEK293 [2] = assay: maximal inhibition of ZIKV NS1 production (% inhibition); higher = stronger antiviral effect
Protocol: (§1)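 HEK293 cells in 1536-well plates were pre-treated with compound for 1 h, infected with ZIKV (MOI 1) for 24 h, and NS1 antigen (intra- plus extracellular) was measured by TR-FRET. Confirmation used 11-point 1:3 dilutions, and IC50 and maximal inhibition were fitted in GraphPad Prism.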

HEK293 [3] = assay: IC50 for inhibition of ZIKV NS1 production
Protocol: as §1

Row | SMILES | cytotoxicity IC50 (HEK293 [1]) | maximal inhibition (HEK293 [2]) | IC50 (HEK293 [3])
1 | O=C1NC(=O)[C@@H](c2cn3c4c(cccc24)CCC3)[C@@H]1c1c[nH]c2ccccc12 | 1.6 µM | 86 | 18 µM
2 | O=C1C(SCCO)=C(SCCO)C(=O)c2ccccc21 | 5.3 µM | 97 | 5.5 µM
3 | O=C(NC1CCNCC1)c1n[nH]cc1NC(=O)c1c(Cl)cccc1Cl | 22 µM | 91 | 3.1 µM
4 | CS(=O)(=O)N1CCN(Cc2cc3nc(-c4cccc5[nH]ncc45)nc(N4CCOCC4)c3s2)CC1 | 70 µM | 65 | 5.6 µM
5 | CCn1nnc2c(N3CCOCC3)nc(-c3ccc(NC(=O)Nc4ccc(C(=O)N5CCN(C)CC5)cc4)cc3)nc21 | 0.65 µM | 79 | 1.6 µM
6 | CC[C@@]1([C@@H]2O[C@@H]([C@H]3O[C@@](O)(CO)[C@H](C)C[C@@H]3C)C[C@@H]2C)CC[C@H]([C@]2(C)CC[C@]3(C[C@H](O)[C@@H](C)[C@@H]([C@@H](C)[C@@H](OC)[C@H](C)C(=O)O)O3)O2)O1 | > 100 µM | 103 | 2.8 µM
7 | C[C@]12O[C@H](C[C@]1(O)CO)n1c3ccccc3c3c4c(c5c6ccccc6n2c5c31)CNC4=O | 15 µM | 58 | 1.7 µM
8 | CC(NCc1ccc2c(c1)nc(NC(=O)c1ccc(-c3cn[nH]c3)s1)n2CC(C)(C)O)C(C)(C)C (stereo not drawn) | > 100 µM | 101 | 9.6 µM
9 | O=C1C(Cl)=C(NCCN2CCOCC2)C(=O)c2ncccc21 | 20 µM | 104 | 16 µM
10 | COc1c(C)c2c(c(O)c1C/C=C(\C)CCC(=O)O)C(=O)OC2 | > 100 µM | 106 | 0.54 µM
11 | CC[C@@H]1C(=O)N(C)c2cnc(Nc3ccc(C(=O)N[C@H]4CC[C@H](N5CCN(CC6CC6)CC5)CC4)cc3OC)nc2N1C(C)C | > 100 µM | 101 | 0.065 µM
12 | CN1CCN(Cc2ccc(NC(=O)Nc3ccc(Oc4cc(NC(=O)C5CC5)ncn4)cc3)cc2C(F)(F)F)CC1 | > 100 µM | 104 | 2.4 µM
13 | CC(C)c1cnn2c(NCc3ccccc3)cc(N[C@@H](CO)[C@H](O)CO)nc12 | > 100 µM | 87 | 1.2 µM
14 | COc1cc([C@@H]2c3cc4c(cc3[C@@H](O[C@@H]3O[C@@H]5CO[C@@H](C)O[C@H]5[C@H](O)[C@H]3O)[C@H]3COC(=O)[C@H]23)OCO4)cc(OC)c1O | > 100 µM | 102 | 2.2 µM
15 | OC[C@H]1O[C@@H](n2cnc3c(S)ncnc32)[C@H](O)[C@@H]1O | 4.1 µM | 99 | 8 µM
16 | CC(C)(O)/C=C/C(=O)[C@](C)(O)[C@H]1[C@H](O)C[C@@]2(C)[C@@H]3CC=C4[C@@H](C=C(O)C(=O)C4(C)C)[C@]3(C)C(=O)C[C@]12C | 3 µM | 52 | 45 µM
17 | CCCOc1ccc2[nH]c(NC(=O)OC)nc2c1 | 86 µM | 67 | 4.9 µM
18 | c1cnc2c(c1)ccc1cccnc12 | 3.6 µM | 99 | 14 µM
19 | O=C(Nc1cc(C(F)(F)F)cc(C(F)(F)F)c1)c1cc(Cl)ccc1O | 0.71 µM | 99 | 3.9 µM
20 | OC[C@H](Cc1ccccc1)Nc1nc(Oc2ccc3c(c2)CCC3)nc2c1ncn2Cc1ccc(-c2ccccc2)cc1 | 90 µM | 100 | 7.8 µM
21 | CC(C)c1ccc(Cn2ccc3c4c(N)nc(NC5CC5)nc4ccc32)cc1 | 78 µM | 106 | 3 µM
22 | C[C@H](NCc1ccc2c(c1)nc(NC(=O)c1ccc(-c3cn[nH]c3)s1)n2CCc1ccccc1)C(C)(C)C | > 100 µM | 98 | 17 µM
23 | OC(c1cc(C(F)(F)F)nc2c(C(F)(F)F)cccc12)C1CCCCN1 (stereo not drawn) | > 100 µM | 97 | 18 µM
24 | COc1cc([C@@H]2c3cc4c(cc3[C@@H](O[C@@H]3O[C@@H]5CO[C@@H](c6cccs6)O[C@H]5[C@H](O)[C@H]3O)[C@H]3COC(=O)[C@H]23)OCO4)cc(OC)c1O | > 100 µM | 100 | 1.2 µM
25 | CCN1/C(=C/C=C/c2sc3ccccc3[n+]2CC)Sc2ccccc21 | 1.2 µM | 71 | 50 µM
26 | COC[C@H](NC(=O)c1cnc(C)s1)C(=O)N[C@@H](COC)C(=O)N[C@@H](Cc1ccccc1)C(=O)[C@@]1(C)CO1 | 0.72 µM | 100 | 0.32 µM

Row | SMILES | cytotoxicity IC50 (HEK293 [1]) | maximal inhibition (HEK293 [2]) | IC50 (HEK293 [3])
27 | Oc1c(Cl)cc(Cl)c2cccnc12 | 16 µM | 93 | 46 µM
28 | CN[C@@H]1C[C@H]2O[C@@](C)([C@@H]1OC)n1c3ccccc3c3c4c(c5c6ccccc6n2c5c31)C(=O)N[C@H]4O | 100 µM | 96 | 0.76 µM
29 | CC(C)C[C@H](NC(=O)[C@H](CCc1ccccc1)NC(=O)CN1CCOCC1)C(=O)N[C@@H](Cc1ccccc1)C(=O)N[C@@H](CC(C)C)C(=O)[C@@]1(C)CO1 | 0.32 µM | 90 | 0.16 µM
30 | CC(C)COCC(CN(Cc1ccccc1)c1ccccc1)N1CCCC1 (stereo not drawn) | > 100 µM | 55 | 43 µM
31 | O[C@@H](CNC[C@H](O)[C@H]1CCc2cc(F)ccc2O1)[C@@H]1CCc2cc(F)ccc2O1 | > 100 µM | 94 | 24 µM
32 | O=c1[nH]c2ccc(Cl)cc2c(N[C@@H]2CN3CCC2CC3)c1-c1nc2ccccc2[nH]1 | 3.3 µM | 100 | 0.41 µM
33 | Nc1cc(C(F)(F)F)c(-c2cc(N3CCOCC3)nc(N3CCOCC3)n2)cn1 | 2.3 µM | 74 | 4.2 µM
34 | Cc1c(N)nc([C@H](CC(N)=O)NC[C@@H](N)C(N)=O)nc1C(=O)N[C@H](C(=O)N[C@@H](C)[C@H](O)[C@@H](C)C(=O)N[C@@H](C(=O)NCCc1nc(-c2nc(C(=O)NCCC[S+](C)C)cs2)cs1)[C@@H](C)O)C(O[C@H]1O[C@H](CO)[C@H](O)[C@@H](O)[C@H]1O[C@H]1O[C@H](CO)[C@@H](O)[C@H](OC(N)=O)[C@@H]1O)c1cnc[nH]1 (stereo partly drawn) | > 100 µM | 103 | 6.3 µM
35 | OCCN1CCN(CCCN2c3ccccc3Sc3ccc(C(F)(F)F)cc32)CC1 | > 100 µM | 84 | 25 µM
36 | FC(F)c1nc2ccccc2n1-c1nc(N2CCOCC2)nc(N2CCOCC2)n1 | 60 µM | 85 | 3.9 µM
37 | C[C@@H]1CC[C@@]2(OC1)O[C@H]1C[C@H]3[C@@H]4CC=C5C[C@@H](O[C@@H]6O[C@H](CO)[C@@H](O[C@@H]7O[C@@H](C)[C@H](O)[C@@H](O)[C@H]7O)[C@H](O)[C@H]6O[C@@H]6O[C@@H](C)[C@H](O)[C@@H](O)[C@H]6O)CC[C@]5(C)[C@H]4CC[C@]3(C)[C@H]1[C@@H]2C | 45 µM | 99 | 16 µM
38 | C[C@@H]1C[C@@H]([C@H](O)CC2CC(=O)NC(=O)C2)C(=O)[C@@H](C)C1 | > 100 µM | 102 | 0.29 µM
39 | CCC1=C[C@@H]2CN(C1)Cc1c([nH]c3ccccc13)[C@@](C(=O)OC)(c1cc3c(cc1OC)N(C)[C@H]1[C@@](O)(C(=O)OC)[C@H](OC(C)=O)[C@]4(CC)C=CCN5CC[C@]31[C@@H]54)C2 | > 100 µM | 95 | 0.27 µM
40 | CC[C@H]1CN2CCc3cc(OC)c(OC)cc3[C@@H]2C[C@@H]1C[C@H]1NCCc2cc(OC)c(OC)cc21 | > 100 µM | 103 | 0.11 µM
41 | C#CCC(Cc1cnc2nc(N)nc(N)c2n1)c1ccc(C(=O)N[C@@H](CCC(=O)O)C(=O)O)cc1 (stereo partly drawn) | 0.46 µM | 101 | 0.45 µM
42 | Cc1cc(Nc2cc(N3CCN(C)CC3)nc(Sc3ccc(NC(=O)C4CC4)cc3)n2)n[nH]1 | > 100 µM | 107 | 14 µM
43 | S=C(SSC(=S)N1CCCCC1)N1CCCCC1 | 0.097 µM | 86 | 0.87 µM
44 | O=C(Nc1ncc(-c2cc(C(F)F)nn2-c2c(Cl)cccc2Cl)s1)C1CC1 | > 100 µM | 92 | 1.2 µM
45 | COc1cccc2c1C(=O)c1c(O)c3c(c(O)c1C2=O)C[C@@](O)(C(=O)CO)C[C@@H]3O[C@H]1C[C@H](N)[C@@H](O)[C@H](C)O1 | > 100 µM | 84 | 0.49 µM
46 | NS(=O)(=O)c1cccc2c1C(=O)c1cccc(O)c1C2=O | 2.8 µM | 98 | 2.6 µM
47 | O=C1NC(=O)/C(=C/c2ccc3nccc(-c4ccncc4)c3c2)S1 | 1.4 µM | 82 | 1.9 µM
48 | COCC[n+]1c2c(n(Cc3cnccn3)c1C)C(=O)c1ccccc1C2=O | 0.03 µM | 104 | 0.018 µM
49 | COC(=O)Nc1nc2cc(C(=O)c3cccs3)ccc2[nH]1 | > 100 µM | 68 | 1.1 µM
50 | CCOC(=O)C1=C(C)NC(=S)NC1c1cccc(O)c1 (stereo not drawn) | > 100 µM | 89 | 50 µM
51 | Cn1c2ccccc2c2c3c(c4c5ccccc5n(CCC#N)c4c21)CNC3=O | 20 µM | 82 | 0.94 µM

Source: the supplement of paper PMC8498969
